Measurements reported in patent US9585389B2, “Microbicidal composition” (Dow Global Technologies LLC, priority 2013, dated 2017).
Where two headings read alike, the source gives them in different places.

How the values were obtained:
[1] = system: Aspergillus niger ATCC#16404; experiment: MIC / synergy index test in 96 well microtiter plates; format: cell-based; conditions: ATCC16404, read-out: CB (MIC of compound B alone)
Procedure: (§1) Surfactants and biocides were evaluated for synergy by determining the synergy index (S.I.) of the combination. Synergy index was calculated based on minimum inhibitory concentrations (MIC) of two antimicrobial compounds (A and B) alone and in combinations. The tests organisms were Gram negative bacteria (Pseudomonas aeruginosa ATCC #15442),
(§2) Gram positive bacteria (Staphylococcus aureus ATCC #6538), yeast (Candida albicans ATCC#10203) and mold (Aspergillus niger ATCC#16404). Contact time for the bacteria was 24 and 48 hours, yeast was 48 and 72 hrs, and 3 and 7 days for mold. The test was carried out in 96 well microtiter plates. • Surf. A R^1O(CH2CH(CH3)o)5(CH2CH2O)9H, where R^1 is 2-ethylhexyl • Surf. D R^2O(CH2CH(CH3)o)3(CH2CH2O)5H • Surf. E R^2O(CH2CH(CH3)o)3(CH2CH2O)7H • In Surf. D and Surf. E, R^2 is a mixture of C8-C14 linear alkyl groups (70% C8-C10 linear alkyl and 30% C12-C14 linear alkyl)
(§3) The pH of the Triptic soy broth was 7.3 and the Potato dextrose broth was 5.1.
(§4) SI is calculated as follows: Ca/CA+Cb/CB=Synergy Index (“SI”)
(§5) Wherein: • CA=concentration of compound A in ppm, acting alone, which produced an end point (MIC of Compound A). • Ca=concentration of compound A in ppm, in the mixture, which produced an end point. • CB=concentration of compound B in ppm, acting alone, which produced an end point (MIC of Compound B). • Cb=concentration of compound B in ppm, in the mixture, which produced an end point. When the sum of Ca/CA and Cb/CB is greater than one, antagonism is indicated.

[2] = system: Staphylococcus aureus ATCC #6538; experiment: as above; format: cell-based; conditions: 1/10 TSB; for MIC: Staphylococcus aureus, ATCC6538, 24 h, Phenoxyethanol alone
Procedure: as §1, §2, §3, §4, §5

[3] = system: Candida albicans ATCC#10203; experiment: as above; format: cell-based; conditions: ATCC10203, 48 h, read-out: CB (MIC of compound B alone)
Procedure: as §1, §2, §3, §4, §5

[4] = system: Pseudomonas aeruginosa ATCC #15442; experiment: as above; format: cell-based; conditions: 1/10 TSB; for MIC: Pseudomonas aeruginosa, ATCC15442, 24 h, Phenoxyethanol alone, read-out: CB (MIC of compound B alone)
Procedure: as §1, §2, §3, §4, §5

[5] = Stability Testing of phenoxyethanol/surfactant solutions; format: physicochemical; conditions: 33% phenoxyethanol in 70% isopropanol with surfactant, PE:Surfactant 1:27
Procedure: A solution of phenoxyethanol in 70% (v/v) isopropanol was made and diluted with surfactant to give the desired ratios of biocide to surfactant. Additional 70% isopropanol was added as needed to give a 33 wt % solution of phenoxyethanol. The samples were split into three vials. One vial was stored at room temperature, one was stored at 40 C and one was stored at 50 C. […] Samples that were cloudy or highly discolored were determined to be unstable.

## OCCOc1ccccc1 [Phenoxyethanol, 2-phenoxy-1-ethanol]
[1]
  MIC: 4000 µg/mL
[2]; series with Surf. A, inoculum 1.156E-+06CFU/ml, read-out: CB (MIC of compound B alone)
  MIC: 8000 µg/mL
[2]; series with Surf. D, inoculum 1.808E+05, read-out: CB (MIC of compound B alone)
  MIC: 10000 µg/mL
[2]; series with Surf. E, inoculum 1.808E+06CFU/ml, read-out: CB (MIC of compound B alone)
  MIC: 8000 µg/mL
[3]
  MIC: 4000 µg/mL
[4]; series with Surf. A, inoculum 8.134E+07CFU/ml
  MIC: 5000 µg/mL
[4]; series with Surf. D, inoculum 1.16E+05CFU/ml
  MIC: 4000 µg/mL
[4]; series with Surf. E, inoculum 5.727E+07CFU/ml
  MIC: 4000 µg/mL

## POLYSORBATE 20
[5]; Day 2, 40° C.
  Stability (appearance): Slightly
[5]; Day 2, 50° C.
  Stability (appearance): Slightly
[5]; Day 7, 40° C.
  Stability (appearance): Slightly
[5]; Day 7, 50° C.
  Stability (appearance): Slightly

## CCCCC(CC)COCC(C)OCC(C)OCC(C)OCC(C)OCC(C)OCCOCCOCCOCCOCCOCCOCCOCCOCCO (centres unmarked) [Surf. A, R^1O(CH2CH(CH3)o)5(CH2CH2O)9H, where R^1 is 2-ethylhexyl]
[2]; Surf. A alone, 24 hrs, inoculum 1.156E-+06CFU/ml
  CA (MIC of compound A alone): >20000 ppm
[4]; Surf. A alone, 24 hrs, inoculum 8.134E+07CFU/ml
  CA (MIC of compound A alone): >20000 ppm
